Active and inactive are the calls of the source. No cut-off for these calls is given here.
How the values were obtained:
[1] = Drug concentration in SCID mouse plasma xenografted with human MV4-11 cells at 50 mg/kg, iv measured after 96 hrs by LC-MS/MS method; type: ADME, organism-based
NCI-H1299 = assay: Antiproliferative activity against SMARCA4-deficient human NCI-H1299 cells assessed as cell growth inhibition measured after 7 days by WST-8 assay; type: functional; details: NCI-H1299, 168 h, time 7 day
[2] = molecular target: T1, von Hippel-Lindau disease tumor suppressor/SWI/SNF-related matrix-associated actin-dependent regulator of chromatin subfamily A member 2 (Homo sapiens, UniProt P51531+P40337); assay: In vivo PROTAC activity at VHL/SMARCA2 in SCID mouse xenografted with human NCI-H838 cells assessed as reduction of SMARCA2 level in tumor at 50 mg/kg, iv administered as single dose measured after 96 hrs by Western blotting analysis; type: functional, organism-based; parameters: scale not given: the % may be the effect or the level left
Target sequence in this assay (P40337 whole entry, looked up, the tested form may be a part): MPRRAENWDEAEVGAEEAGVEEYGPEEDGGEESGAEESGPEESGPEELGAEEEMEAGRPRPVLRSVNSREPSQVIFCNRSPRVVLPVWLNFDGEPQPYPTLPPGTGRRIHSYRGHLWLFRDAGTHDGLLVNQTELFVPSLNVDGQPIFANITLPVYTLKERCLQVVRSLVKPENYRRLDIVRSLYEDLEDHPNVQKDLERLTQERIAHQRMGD
Target sequence in this assay (P51531 whole entry, looked up, the tested form may be a part): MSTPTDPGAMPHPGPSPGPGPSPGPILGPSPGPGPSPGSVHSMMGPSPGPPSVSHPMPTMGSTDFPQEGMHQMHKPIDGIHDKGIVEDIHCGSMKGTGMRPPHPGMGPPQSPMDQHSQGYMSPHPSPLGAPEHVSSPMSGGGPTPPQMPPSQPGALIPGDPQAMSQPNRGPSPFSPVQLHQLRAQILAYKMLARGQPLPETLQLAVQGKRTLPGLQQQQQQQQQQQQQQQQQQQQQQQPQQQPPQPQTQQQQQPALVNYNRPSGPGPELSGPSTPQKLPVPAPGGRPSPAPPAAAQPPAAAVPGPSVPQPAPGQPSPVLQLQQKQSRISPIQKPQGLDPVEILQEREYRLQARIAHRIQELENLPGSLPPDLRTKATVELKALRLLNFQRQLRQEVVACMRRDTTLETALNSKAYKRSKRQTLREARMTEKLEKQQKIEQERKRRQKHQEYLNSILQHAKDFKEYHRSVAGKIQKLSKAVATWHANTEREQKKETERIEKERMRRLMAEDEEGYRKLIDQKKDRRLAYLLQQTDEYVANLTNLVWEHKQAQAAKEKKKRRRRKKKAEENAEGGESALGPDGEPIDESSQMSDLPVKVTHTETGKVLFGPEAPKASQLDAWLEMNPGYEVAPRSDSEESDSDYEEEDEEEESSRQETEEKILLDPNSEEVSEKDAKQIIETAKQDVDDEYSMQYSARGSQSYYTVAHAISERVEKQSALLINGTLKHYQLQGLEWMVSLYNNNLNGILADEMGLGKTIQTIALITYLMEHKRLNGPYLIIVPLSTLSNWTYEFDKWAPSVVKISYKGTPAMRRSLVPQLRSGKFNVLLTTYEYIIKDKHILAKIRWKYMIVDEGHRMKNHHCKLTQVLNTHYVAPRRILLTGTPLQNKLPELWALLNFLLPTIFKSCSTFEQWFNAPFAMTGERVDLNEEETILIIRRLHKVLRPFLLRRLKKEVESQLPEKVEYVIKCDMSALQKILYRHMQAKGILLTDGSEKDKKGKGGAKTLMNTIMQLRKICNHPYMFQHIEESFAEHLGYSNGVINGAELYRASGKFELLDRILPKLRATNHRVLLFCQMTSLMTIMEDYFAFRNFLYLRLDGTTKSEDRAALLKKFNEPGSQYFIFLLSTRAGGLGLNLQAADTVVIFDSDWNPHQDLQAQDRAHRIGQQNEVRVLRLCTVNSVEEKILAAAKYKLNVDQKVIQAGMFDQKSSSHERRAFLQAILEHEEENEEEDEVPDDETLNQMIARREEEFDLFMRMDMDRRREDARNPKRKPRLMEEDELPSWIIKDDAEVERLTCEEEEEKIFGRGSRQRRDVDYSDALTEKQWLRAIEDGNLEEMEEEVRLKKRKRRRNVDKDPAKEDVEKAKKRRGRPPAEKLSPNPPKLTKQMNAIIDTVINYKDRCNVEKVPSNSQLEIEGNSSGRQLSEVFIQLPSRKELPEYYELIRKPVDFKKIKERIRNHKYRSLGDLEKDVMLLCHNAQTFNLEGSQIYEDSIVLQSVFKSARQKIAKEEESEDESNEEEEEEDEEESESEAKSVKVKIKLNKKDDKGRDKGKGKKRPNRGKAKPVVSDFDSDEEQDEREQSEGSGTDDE

[3] = molecular target: T1, von Hippel-Lindau disease tumor suppressor/SWI/SNF-related matrix-associated actin-dependent regulator of chromatin subfamily A member 2; assay: PROTAC activity at VHL/C-terminal HiBiT fused SMARCA2 in human HeLa cells assessed as induction of SMARCA2 degradation by measuring maximal efficacy at 0.0001 to 1 uM incubated for 24 hrs by Nano-Glo HiBiT analysis relative to control; type: cell-based; details: dose 0.0001-1 µM
Target sequence in this assay (P40337 whole entry, looked up, the tested form may be a part): as the sequence (P40337 whole entry, looked up, the tested form may be a part) above
Target sequence in this assay (P51531 whole entry, looked up, the tested form may be a part): as the sequence (P51531 whole entry, looked up, the tested form may be a part) above

[4] = molecular target: T2, von Hippel-Lindau disease tumor suppressor/SWI/SNF-related matrix-associated actin-dependent regulator of chromatin subfamily A member 4 (Homo sapiens, UniProt P51532+P40337); assay: PROTAC activity at VHL/wild-type SMARCA4 in human SK-MEL-28 cells assessed as induction of SMARCA4 degradation at 0.001 to 1000 nM incubated for 24 hrs by Western blotting analysis relative to control; type: cell-based; details: dose 0.001-1000 nM
[5] = Drug concentration in SCID mouse tumor xenografted with human MV4-11 cells at 50 mg/kg, iv measured after 2 hrs by LC-MS/MS method; type: ADME, organism-based, Neoplasm; details: read-out: Ct
[6] = molecular target: T2, von Hippel-Lindau disease tumor suppressor/SWI/SNF-related matrix-associated actin-dependent regulator of chromatin subfamily A member 4; assay: PROTAC activity at VHL/C-terminal HiBiT fused SMARCA4 in human HeLa cells assessed as induction of SMARCA4 degradation by measuring maximal efficacy incubated for 24 hrs by Nano-Glo HiBiT analysis relative to control; type: cell-based
NCI-H647 = assay: Antiproliferative activity against human NCI-H647 cells expressing wild-type SMARCA2 assessed as cell growth inhibition by measuring maximal efficacy measured after 7 days by WST-8 assay relative to control; type: functional; details: time 7 day
[7] = molecular target: T1, von Hippel-Lindau disease tumor suppressor/SWI/SNF-related matrix-associated actin-dependent regulator of chromatin subfamily A member 2; assay: (§1) PROTAC activity at VHL/C-terminal HiBiT fused SMARCA2 in human HeLa cells assessed as induction of SMARCA2 degradation pre-treated with PR171 for 2 hrs followed by compound treatment for 24 hrs by Nano-Glo HiBiT analysis; type: cell-based
Target sequence in this assay (P40337 whole entry, looked up, the tested form may be a part): as the sequence (P40337 whole entry, looked up, the tested form may be a part) above
Target sequence in this assay (P51531 whole entry, looked up, the tested form may be a part): as the sequence (P51531 whole entry, looked up, the tested form may be a part) above

[8] = molecular target: T2, von Hippel-Lindau disease tumor suppressor/SWI/SNF-related matrix-associated actin-dependent regulator of chromatin subfamily A member 4; assay: In vivo PROTAC activity at VHL/SMARCA4 in SCID mouse xenografted with human MV4-11 cells assessed as remaining activity in tumor at 50 mg/kg, iv administered as single dose measured after 96 hrs by Western blotting analysis (reference value: 100 +/- 15 % ); type: ADME, organism-based
Target sequence in this assay (P51532 whole entry): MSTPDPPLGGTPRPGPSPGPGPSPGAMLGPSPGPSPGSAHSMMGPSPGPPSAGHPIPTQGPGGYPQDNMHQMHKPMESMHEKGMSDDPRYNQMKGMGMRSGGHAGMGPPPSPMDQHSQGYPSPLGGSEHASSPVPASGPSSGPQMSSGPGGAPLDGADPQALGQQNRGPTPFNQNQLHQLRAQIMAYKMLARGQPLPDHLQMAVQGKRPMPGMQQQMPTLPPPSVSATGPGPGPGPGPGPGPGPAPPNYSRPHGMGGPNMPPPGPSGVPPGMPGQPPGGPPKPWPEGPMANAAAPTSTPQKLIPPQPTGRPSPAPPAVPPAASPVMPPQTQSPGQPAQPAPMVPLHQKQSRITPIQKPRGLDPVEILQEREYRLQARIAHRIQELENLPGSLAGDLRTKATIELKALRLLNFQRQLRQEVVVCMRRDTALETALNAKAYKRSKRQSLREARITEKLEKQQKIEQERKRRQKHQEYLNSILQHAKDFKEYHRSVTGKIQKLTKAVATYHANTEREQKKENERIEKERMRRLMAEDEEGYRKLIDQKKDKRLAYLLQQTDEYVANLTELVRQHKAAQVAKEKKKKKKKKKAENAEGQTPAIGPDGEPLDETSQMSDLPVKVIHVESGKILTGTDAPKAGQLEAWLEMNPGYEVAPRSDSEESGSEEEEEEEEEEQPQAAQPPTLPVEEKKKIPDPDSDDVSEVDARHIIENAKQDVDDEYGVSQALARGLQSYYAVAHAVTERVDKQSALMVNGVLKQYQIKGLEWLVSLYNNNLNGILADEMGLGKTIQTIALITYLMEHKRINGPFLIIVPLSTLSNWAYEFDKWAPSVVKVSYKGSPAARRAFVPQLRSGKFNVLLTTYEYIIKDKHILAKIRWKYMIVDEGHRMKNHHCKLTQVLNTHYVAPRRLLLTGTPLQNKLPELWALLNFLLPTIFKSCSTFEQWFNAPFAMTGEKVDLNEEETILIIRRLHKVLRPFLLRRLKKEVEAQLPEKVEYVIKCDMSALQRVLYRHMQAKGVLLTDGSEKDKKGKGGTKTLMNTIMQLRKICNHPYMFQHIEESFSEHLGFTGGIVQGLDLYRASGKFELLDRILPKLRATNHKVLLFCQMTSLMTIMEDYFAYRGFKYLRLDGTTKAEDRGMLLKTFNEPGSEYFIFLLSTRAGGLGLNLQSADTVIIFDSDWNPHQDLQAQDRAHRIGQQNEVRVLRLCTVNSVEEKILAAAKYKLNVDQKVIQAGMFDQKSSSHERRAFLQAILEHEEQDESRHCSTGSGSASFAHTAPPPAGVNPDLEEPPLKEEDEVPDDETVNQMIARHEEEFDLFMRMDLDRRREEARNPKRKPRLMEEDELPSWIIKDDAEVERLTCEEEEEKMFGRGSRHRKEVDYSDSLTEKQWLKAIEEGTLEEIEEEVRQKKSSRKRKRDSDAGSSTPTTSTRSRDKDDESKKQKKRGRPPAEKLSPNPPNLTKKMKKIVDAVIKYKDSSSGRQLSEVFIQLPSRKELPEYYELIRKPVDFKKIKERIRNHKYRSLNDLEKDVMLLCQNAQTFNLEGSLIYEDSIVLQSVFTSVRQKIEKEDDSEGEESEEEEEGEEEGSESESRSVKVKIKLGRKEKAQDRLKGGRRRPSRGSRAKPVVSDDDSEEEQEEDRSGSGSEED
Target sequence in this assay (P40337 whole entry): as the sequence (P40337 whole entry, looked up, the tested form may be a part) above

[9] = molecular target: T1, von Hippel-Lindau disease tumor suppressor/SWI/SNF-related matrix-associated actin-dependent regulator of chromatin subfamily A member 2; assay: In vivo PROTAC activity at VHL/SMARCA2 in SCID mouse xenografted with human MV4-11 cells assessed as remaining activity in tumor at 50 mg/kg, iv administered as single dose measured after 24 hrs by Western blotting analysis (reference value: 100 +/- 15 % ); type: ADME, organism-based
A549 [10] = assay: Antiproliferative activity against SMARCA4-deficient human A549 cells assessed as cell growth inhibition measured after 7 days by WST-8 assay; type: functional; details: A549, 168 h, time 7 day
NCI-H838 = assay: Antiproliferative activity against SMARCA4-deficient human NCI-H838 cells assessed as cell growth inhibition by measuring maximal efficacy measured after 7 days by WST-8 assay relative to control; type: functional; details: time 7 day
NCI-H1792 = assay: Antiproliferative activity against human NCI-H1792 cells expressing wild-type SMARCA2 assessed as cell growth inhibition by measuring maximal efficacy measured after 7 days by WST-8 assay relative to control; type: functional; details: time 7 day
[11] = molecular target: T2, von Hippel-Lindau disease tumor suppressor/SWI/SNF-related matrix-associated actin-dependent regulator of chromatin subfamily A member 4; assay: In vivo PROTAC activity at VHL/SMARCA4 in SCID mouse xenografted with human MV4-11 cells assessed as remaining activity in tumor at 50 mg/kg, iv administered as single dose measured after 24 hrs by Western blotting analysis (reference value: 100 +/- 15 % ); type: ADME, organism-based
Target sequence in this assay (P51532 whole entry): as the sequence (P51532 whole entry) above
Target sequence in this assay (P40337 whole entry): as the sequence (P40337 whole entry, looked up, the tested form may be a part) above

NCI-H1944 = assay: Antiproliferative activity against SMARCA4-deficient human NCI-H1944 cells assessed as cell growth inhibition measured after 7 days by WST-8 assay; type: functional; details: NCI-H1944, 168 h, time 7 day
[12] = molecular target: T1, von Hippel-Lindau disease tumor suppressor/SWI/SNF-related matrix-associated actin-dependent regulator of chromatin subfamily A member 2; assay: In vivo PROTAC activity at VHL/SMARCA2 in SCID mouse xenografted with human NCI-H838 cells assessed as reduction of SMARCA2 level in tumor at 50 mg/kg, iv administered as single dose measured after 48 hrs by Western blotting analysis; type: functional, organism-based; parameters: scale not given: the % may be the effect or the level left
Target sequence in this assay (P40337 whole entry, looked up, the tested form may be a part): as above
Target sequence in this assay (P51531 whole entry, looked up, the tested form may be a part): as the sequence (P51531 whole entry, looked up, the tested form may be a part) above

[13] = molecular target: T1, von Hippel-Lindau disease tumor suppressor/SWI/SNF-related matrix-associated actin-dependent regulator of chromatin subfamily A member 2; assay: as §1, with “(2S,4R)-1-((S)-2-acetamido-3,3-dimethylbutanoyl)-4-hydroxy-N-((S)-1-(4-(4-methylthiazol-5-yl)phenyl)ethyl)pyrrolidine-2-carboxamide” for “PR171”; type: cell-based
Target sequence in this assay (P40337 whole entry, looked up, the tested form may be a part): as the sequence (P40337 whole entry, looked up, the tested form may be a part) above
Target sequence in this assay (P51531 whole entry, looked up, the tested form may be a part): as the sequence (P51531 whole entry, looked up, the tested form may be a part) above

[14] = molecular target: T2, von Hippel-Lindau disease tumor suppressor/SWI/SNF-related matrix-associated actin-dependent regulator of chromatin subfamily A member 4; assay: PROTAC activity at VHL/wild-type SMARCA4 in human SK-MEL-28 cells assessed as induction of SMARCA4 degradation incubated for 24 hrs by Western blotting analysis; type: cell-based
Target sequence in this assay (P51532 whole entry): as the sequence (P51532 whole entry) above
Target sequence in this assay (P40337 whole entry): as the sequence (P40337 whole entry, looked up, the tested form may be a part) above

[15] = Drug concentration in SCID mouse tumor xenografted with human MV4-11 cells at 50 mg/kg, iv measured after 48 hrs by LC-MS/MS method; type: ADME, organism-based, Neoplasm; details: read-out: Ct
NCI-H1693 = assay: Antiproliferative activity against SMARCA4-deficient human NCI-H1693 cells assessed as cell growth inhibition measured after 7 days by WST-8 assay; type: functional; details: NCI-H1693, 168 h, time 7 day
[16] = molecular target: T1, von Hippel-Lindau disease tumor suppressor/SWI/SNF-related matrix-associated actin-dependent regulator of chromatin subfamily A member 2; assay: PROTAC activity at VHL/C-terminal HiBiT fused SMARCA2 in human HeLa cells assessed as induction of SMARCA2 degradation at 0.0001 to 1 uM incubated for 6 hrs by Nano-Glo HiBiT analysis relative to control; type: cell-based; details: dose 0.0001-1 µM
Target sequence in this assay (P40337 whole entry, looked up, the tested form may be a part): as above
Target sequence in this assay (P51531 whole entry, looked up, the tested form may be a part): as the sequence (P51531 whole entry, looked up, the tested form may be a part) above

[17] = molecular target: T1, von Hippel-Lindau disease tumor suppressor/SWI/SNF-related matrix-associated actin-dependent regulator of chromatin subfamily A member 2; assay: PROTAC activity at VHL/C-terminal HiBiT fused SMARCA2 in human HeLa cells assessed as induction of SMARCA2 degradation pre-treated with 2-(6-amino-5-(1-methyl-1H-pyrazol-4-yl)pyridazin-3-yl)phenol for 2 hrs followed by compound treatment for 24 hrs by Nano-Glo HiBiT analysis; type: cell-based
[18] = Drug concentration in SCID mouse plasma xenografted with human MV4-11 cells at 50 mg/kg, iv measured after 48 hrs by LC-MS/MS method; type: ADME, organism-based
A549 [19] = assay: Antiproliferative activity against SMARCA4-deficient human A549 cells assessed as cell growth inhibition by measuring maximal efficacy measured after 7 days by WST-8 assay relative to control; type: functional; details: time 7 day
[20] = molecular target: T1, von Hippel-Lindau disease tumor suppressor/SWI/SNF-related matrix-associated actin-dependent regulator of chromatin subfamily A member 2; assay: PROTAC activity at VHL/C-terminal HiBiT fused SMARCA2 in human HeLa cells assessed as induction of SMARCA2 degradation by measuring maximal efficacy at 0.0001 to 1 uM incubated for 48 hrs by Nano-Glo HiBiT analysis relative to control; type: cell-based; details: dose 0.0001-1 µM
[21] = Drug concentration in SCID mouse plasma xenografted with human MV4-11 cells at 50 mg/kg, iv measured after 2 hrs by LC-MS/MS method; type: ADME, organism-based

In the case of `Cc1ncsc1-c1ccc([C@H](C)NC(=O)[C@@H]2C[C@@H](O)CN2C(=O)[C@@H](NC(=O)[C@H]2CC[C@H](CN3CC4(CCC(n5cc(-c6cc(-c7ccccc7O)nnc6N)cn5)CC4)C3)CC2)C(C)(C)C)cc1`, the concentration at 96 h [1] is reported as 19.6 ng/mL, the GI50 (NCI-H1299) is reported as over 10000 nM and the Activity [2] is reported as 67%. The Emax [3] was 90%, the Emax [4] was 24% and the concentration at 2 h [5] was 3420 ng/g. The Emax [6] was 44%, the Imax (NCI-H647) was 74% and the Activity [7] was “inactive”. It also gave an Activity [8] of 84%, an Activity [9] of 14% and a GI50 (A549 [10]) of 42 nM. For the same compound, the Imax (NCI-H838) was 83%, the Imax (NCI-H1792) was 25% and the Activity [11] was 71%. For the same compound, the GI50 (NCI-H1944) was 30 nM, the Activity [12] was 75% and the Activity [13] was “inactive”. The DC50 [14] was over 1000 nM, the concentration at 48 h [15] was 978 ng/g and the GI50 (NCI-H1693) was 15 nM. The Emax [16] was 80%, the Activity [17] was “inactive” and the concentration at 48 h [18] was 60.5 ng/mL. For the same compound, the Imax (A549 [19]) was 51%, the Emax [20] was 94% and the concentration at 2 h [21] was 2730 ng/mL.

From ChEMBL document CHEMBL5325488, “Discovery of SMD-3040 as a Potent and Selective SMARCA2 PROTAC Degrader with Strong in vivo Antitumor Activity” (J Med Chem, 2023)
